Test results: paper PMC12074479, “Design, Synthesis, and Biological Evaluation of New Analogs of Aurein 1.2 Containing Non-Proteinogenic Amino Acids” (Molecules, 2025)
In brackets after ≈: the same amount, converted by molar mass. Where two headings read alike, the source gives them in different places. Where a SMILES comes first, the peptide text is derived from it. [ ]: non-standard residue; d: D form. Dab = NCC[C@H](N)C(=O)O

Tests used:
BALB 3T3 cells = assay: in vitro
Experimental: (§1) An in vitro BALB 3T3 Neutral Red Uptake assay was used to determine the cytotoxicity/phototoxicity of the peptides. Cytotoxicity of peptide analogs was calculated as a percentage relative to the negative control. […] Photo irritation factor (PIF) was used to assess the phototoxic potential of the peptide analogs. The PIF factor represents the ratio between the CC50 values of dark (non-irradiated or—Irr) and irradiated (+Irr) microplates, PIF = (CC50 − Irr)/(CC50 + Irr).
(§2) Mouse embryonic fibroblasts (BALB 3T3) were used to perform the cytotoxicity and phototoxicity tests. The tests were performed by OECD Guidelines for the Testing of Chemicals, Section 4, Test No. 432. Cells were plated at 1 × 10^4 cells/well in 96-well plates. Cells were incubated in a thermostat for 24 h. Then, the test peptides were added at various working concentrations (4–1000 μM). In the phototoxicity test, 96-well plates were irradiated with a dose of 2.4 J/cm^2 using a solar light simulator Helios-iO (SERIC Ltd., Tokyo, Japan). Cell viability was measured using the BALB 3T3 neutral red uptake test. Cytotoxicity is presented as % relative to the negative control.

in vitro = conditions: mouse, Mean CC50 ± SD, +Irr
Experimental: as §1, §2

MDA-MB-231 = assay: cells
Experimental: (§3) The peptides were studied for antiproliferative activity with an MTT-dye reduction assay. Cell cultures were incubated with the test peptides in twofold increasing concentrations (from 2 to 500 μM) for 72 h.
(§4) The antiproliferative activity of the peptides was determined in normal epithelial cells (MCF-12F) and tumor cells (MCF-7 and MDA-MB-231) by MTT-assay. Cells were plated 1 × 10^3 cells/100 µL/well of 96-well plates and incubated in a thermostat under standard conditions for 24 h. Cells were then incubated with the tested peptide analogs for 72 h in different concentrations (from 2 to 500 µM). The optical density of the formazan was measured at λ = 540 nm using a microplate reader. Antiproliferative activity was expressed as % from negative control. […] The statistical analysis of the results was performed using one-way ANOVA followed by Bonferroni’s post hoc test by GraphPad Prism 8 software (San Diego, CA, USA).

MCF-7 = assay: cells
Experimental: as §3, §4

MCF-12F = assay: cells; conditions: 72 h
Experimental: as §3, §4

[1] = tested on: Bacillus subtilis NBIMCC 3562; conditions: NBIMCC 3562, 24 h
Experimental: (§5) The antimicrobial activity of the 7 new analogs of aurein 1.2 was evaluated by determining the MIC and MBC against Gram-positive strain Bacillus subtilis 3562 and Gram-negative strain Escherichia coli K12 407. The MIC of the newly synthesized analogs was assessed by applying a broth microdilution method, whereas their MBC was determined by using a spread plate method. All experiments were performed in triplicate.
(§6) Bacillus subtilis NBIMCC 3562 and Escherichia coli NBIMCC K12 407 were used as test microorganisms and were purchased from the National Bank for Industrial Microorganisms and Cell Cultures (NBIMCC, Sofia, Bulgaria). Exponential cultures were obtained in Nutrient broth (NB, HiMedia, Mumbai, India) for B. subtilis NBIMCC 3562 and Luria-Bertani (LB, HiMedia, Mumbai, India) for E. coli NBIMCC K12 407, after cultivation in an incubator shaker ES-20/60 (Biosan, Latvia) at 30/37 °C for 24 h. Then, the turbidity of the microbial cultures was adjusted to the 0.5 McFarland standard using a Grant Bio DEN-1B Densitometer (Grant Instruments, Royston, UK).
(§7) The antimicrobial activity of the obtained aurein 1.2 analogs was evaluated using the broth microdilution method, recommended by the Clinical and Laboratory Standards Institute (CLSI), to determine the minimum inhibitory concentration (MIC) of the peptides against B. subtilis NBIMCC 3562 and E. coli NBIMCC K12 407. All peptides were previously dissolved in 10% EtOH/H2O, and their 10 mg/mL stock solutions were stored at −20 °C. Bacterial cultures, previously adjusted to 0.5 McFarland standard, were incubated in the presence of different peptide concentrations (0–320 µg/mL) in 96-well polystyrene microplates (Deltalab S.L., Barcelona, Spain) at 30/37 °C for 24 h. The lowest concentration of each peptide, which inhibited bacterial growth, was considered as MIC. In addition, a drop of 20 µL of the 24 h inhibitory concentration test samples was spotted on the corresponding solid media to determine the minimum bactericidal concentration (MBC). […] All experiments were performed in triplicate.

[2] = tested on: Escherichia coli NBIMCC K12 407; conditions: K12, 24 h
Experimental: as §5, §6, §7

[3] = SI = IC50 (normal cells)/IC50 (tumor cells), normal cells MCF-12F

Row | IC50 (MDA-MB-231; Homo sapiens, MDA-MB-231, 72 h, read-out: Mean IC50 ± SD, MDA-MB-231) [µM] | IC50 (MCF-7; Homo sapiens, MCF7, 72 h, read-out: Mean IC50 ± SD, MCF-7) [µM] | IC50 (MCF-12F; Homo sapiens, read-out: Mean IC50 ± SD, MCF-12F) [µM] | Compound | PIF (Photo Irritation Factor) (BALB 3T3 cells; mouse) | CC50 (in vitro) [µM] | SI, MDA-MB-231 (MDA-MB-231; [3]) | SI, MCF-7 (MCF-7; [3]) | IC50 (MDA-MB-231; 72 h) [µM] | IC50 (MCF-7; 72 h) [µM] | IC50 (MCF-12F) [µM] | PIF (Photo Irritation Factor) (BALB 3T3 cells) | Toxicity compared to the parent peptide aurein 1.2 (BALB 3T3 cells; BALB 3T3 cells, fold lower toxicity) | MIC, Bacillus subtilis NBIMCC 3562 [1] [µg/mL] | MIC, Escherichia coli NBIMCC K12 407 [2] [µg/mL] | MBC, Bacillus subtilis NBIMCC 3562 [1] [µg/mL]
1 | – | – | – | CN(C)CCCN1c2ccccc2Sc2ccc(Cl)cc21 [Chlorpromazine, reference compound] | 6.06 | 2.04 ± 0.07 | – | – | – | – | – | – | – | – | – | –
2 | 2.53 ± 0.11 | 0.68 ± 0.031 | 0.601 ± 0.059 | COc1cccc2c1C(=O)c1c(O)c3c(c(O)c1C2=O)C[C@@](O)(C(=O)CO)C[C@@H]3O[C@H]1C[C@H](N)[C@H](O)[C@H](C)O1 [Doxorubicin, reference compound] | – | – | 0.237 | 0.88 | – | – | – | – | – | – | – | –
3 | – | – | – | CC[C@H](C)[C@H](NC(=O)[C@H](CCN)NC(=O)[C@H](CCN)NC(=O)[C@@H](NC(=O)[C@@H](NC(=O)[C@H](CC(=O)O)NC(=O)[C@H](Cc1ccccc1)NC(=O)[C@H](CC(C)C)NC(=O)CN)[C@@H](C)CC)[C@@H](C)CC)C(=O)N[C@@H](C)C(=O)N[C@@H](CCC(=O)O)C(=O)N[C@@H](CO)C(=O)N[C@@H](Cc1ccccc1)C(N)=O [EH [Dab]^7,8, Gly-Leu-Phe-Asp-Ile-Ile-Dab^7-Dab^8-Ile-Ala-Glu-Ser-Phe-NH2] (H-GLFDII[Dab][Dab]IAESF-NH2) | – | 181.1 ± 1.81 | – | – | 164 ± 2.51 | 92.2 ± 1.8 | 168 ± 2.54 | 1.11 | two to four times lower toxicity | 160 (≈ 112 µM) | 160 (≈ 112 µM) | –
4 | – | – | – | CC[C@H](C)[C@H](NC(=O)[C@H](CCCCN)NC(=O)[C@H](CCN)NC(=O)[C@@H](NC(=O)[C@@H](NC(=O)[C@H](CC(=O)O)NC(=O)[C@H](Cc1ccccc1)NC(=O)[C@H](CC(C)C)NC(=O)CN)[C@@H](C)CC)[C@@H](C)CC)C(=O)N[C@@H](C)C(=O)N[C@@H](CCC(=O)O)C(=O)N[C@@H](CO)C(=O)N[C@@H](Cc1ccccc1)C(N)=O [EH [Dab]^7, Gly-Leu-Phe-Asp-Ile-Ile-Dab^7-Lys-Ile-Ala-Glu-Ser-Phe-NH2] (H-GLFDII[Dab]KIAESF-NH2) | – | 113 ± 5.57 | – | – | 125 ± 4.97 | 74.4 ± 3.29 | 92.1 ± 2.12 | 1.40 | – | 80 (≈ 55.1 µM) | 80 (≈ 55.1 µM) | 320 (≈ 220 µM)
5 | – | – | – | CC[C@H](C)[C@H](NC(=O)[C@H](CCN)NC(=O)[C@H](CCCCN)NC(=O)[C@@H](NC(=O)[C@@H](NC(=O)[C@H](CC(=O)O)NC(=O)[C@H](Cc1ccccc1)NC(=O)[C@H](CC(C)C)NC(=O)CN)[C@@H](C)CC)[C@@H](C)CC)C(=O)N[C@@H](C)C(=O)N[C@@H](CCC(=O)O)C(=O)N[C@@H](CO)C(=O)N[C@@H](Cc1ccccc1)C(N)=O [EH [Dab]^8, Gly-Leu-Phe-Asp-Ile-Ile-Lys-Dab^8-Ile-Ala-Glu-Ser-Phe-NH2] (H-GLFDIIK[Dab]IAESF-NH2) | – | 81.4 ± 2.34 | – | – | 79.7 ± 1.78 | 67.2 ± 2.57 | 68.3 ± 3.51 | 1.13 | – | 80 (≈ 55.1 µM) | 80 (≈ 55.1 µM) | 320 (≈ 220 µM)
